Key:
β-glucuronidase = target: T1, β-glucuronidase (Escherichia coli, UniProt P05804); assay: β-glucuronidase inhibition: residual activity (production of formula III compound from formula II compound, HPLC); type: biochemical; conditions: formula II substrate 100 nmol/ml, pH 6.8, 37° C., 20 min; for remaining activity at 0.0167 µM: 16.7 nM; for remaining activity at 0.0333 µM: 33.3 nM; for remaining activity at 0.1667 µM: 166.7 nM
T1 construct: purchased Sigma Chemical Co
Experimental: β-glucuronidase (manufactured by Sigma Chemical Co.) derived from Escherichia coli was added to a reaction solution comprising 50 μl of potassium phosphate buffer (pH: 6.8), a solution of a compound (100 nmol/ml) represented by the formula II and produced by Reference Example which will be described later and a specimen, and a reaction was allowed to proceed at 37° C. for 20 min. A glycine buffer (pH: 10.4) was added to terminate the reaction. 10 μl of the reaction mixture and 100 μl of an internal standard (camptothecin) solution were added to 1 ml of a 0.01N aqueous hydrochloric acid solution, and the mixture was applied to Bond Elute C18 (Analytichem), washed with water and 0.01N aqueous hydrochloric acid solution. Elution was effected with acetonitrile/water (1:2). 100 μl of the eluate obtained by elution with acetonitrile/water (1:2) was analyzed by high performance liquid chromatography (HPLC) under the following conditions, and the β-glucuronidase activity was calculated by using the amount of production of the compound represented by the formula III as an indication.
Apparatus: high performance liquid chromatograph HLC-803D manufactured by Toyo Soda
Analytical column: Tosoh ODS-80TM 250×4.6 mm (I.D.)
Thermostatic chamber of column: Tosoh CO-8011 40° C.
Guard column: Tosoh TSKguradgel ODS-120T
Detector: Shimazu Fluorescence HPLCMonitor RF-530
Detection wavelength: Ex380nm Em556nm
Autosampler: Tosoh AS-8000
Eluent: acetonitrile/water (1:2)

bone marrow = conditions: cited from earlier work

T1 sequence (P05804 whole entry): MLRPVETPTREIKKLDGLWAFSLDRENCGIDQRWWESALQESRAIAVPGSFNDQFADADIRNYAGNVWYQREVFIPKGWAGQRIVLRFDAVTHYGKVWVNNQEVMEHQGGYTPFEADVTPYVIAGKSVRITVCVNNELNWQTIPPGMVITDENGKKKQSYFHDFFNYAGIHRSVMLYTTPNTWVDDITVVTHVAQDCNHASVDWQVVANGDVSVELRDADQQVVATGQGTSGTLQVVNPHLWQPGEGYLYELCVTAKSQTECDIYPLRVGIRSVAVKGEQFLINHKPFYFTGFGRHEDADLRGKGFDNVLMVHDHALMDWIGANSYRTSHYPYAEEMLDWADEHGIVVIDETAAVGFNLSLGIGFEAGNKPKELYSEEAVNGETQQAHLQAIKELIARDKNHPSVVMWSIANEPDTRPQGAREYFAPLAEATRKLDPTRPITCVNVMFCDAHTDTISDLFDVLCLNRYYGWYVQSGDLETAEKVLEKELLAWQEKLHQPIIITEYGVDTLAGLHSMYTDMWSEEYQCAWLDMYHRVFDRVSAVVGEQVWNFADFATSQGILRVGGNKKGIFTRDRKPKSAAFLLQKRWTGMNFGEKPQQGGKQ

Compound	remaining activity at 0.0167 µM (β-glucuronidase)	remaining activity at 0.0333 µM (β-glucuronidase)	remaining activity at 0.1667 µM (β-glucuronidase)	toxicity (bone marrow)
O=C(O)[C@H]1O[C@@H](Oc2cc3oc(-c4ccccc4)cc(=O)c3c(O)c2O)[C@H](O)[C@@H](O)[C@@H]1O [Baicalin, baicalin]	19%	10.7%	2.3%	–
CC[C@@]1(O)C(=O)OCc2c1cc1n(c2=O)Cc2cc3ccccc3nc2-1 [Camptothecin, camptothecin]	–	–	–	strong inhibition of bone marrow
O=C(O)[C@H]1O[C@@H](Oc2cc(-c3cc(=O)c4c(O)cc(O)cc4o3)ccc2O)[C@H](O)[C@@H](O)[C@@H]1O [Luteolin-3'-glucuronide, luteolin-3'-glucuronide]	28.5%	13.2%	2.1%	–
COc1c(O[C@@H]2O[C@H](C(=O)O)[C@@H](O)[C@H](O)[C@H]2O)cc2oc(-c3ccccc3)cc(=O)c2c1O [Oroxylin A-7-O-glucuronide, oroxylin A-7-O-glucuronide]	31.1%	17%	3%	–

— patent publication US5447719A, “β-glucuronidase inhibitor” (priority 1991, dated 1995)
